Like-named read-outs stand apart in the source and are kept apart here.
Test system: NF-κ B
Assay: Inhibitory activity of NF-κ B activation, luciferase reporter assay in HepG2 under TNF-α stimulation
Type: cell-based, human
In short: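 HepG2 cells transiently transfected with a luciferase reporter driven by five tandem NF-κB binding sites, then incubated 6–24 h. Stimulated with TNF-α (40 ng/ml) with or without test compound for 4 h. Intracellular luciferase read by chemiluminescence; inhibition expressed relative to activity without compound.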

[1] = 1 μg/mL, HepG2, TNF-α (40 ng/ml), 4 hours
[2] = 10 μg/mL, HepG2, TNF-α (40 ng/ml), 4 hours
[3] = Homo sapiens, 10 μg/mL, HepG2, TNF-α (40 ng/ml), 4 hours, read-out: Inhibitory Ratio of NF-κ B Activation(%) Drug Concentration 10 μg/mL
[4] = Homo sapiens, 1 μg/mL, HepG2, TNF-α (40 ng/ml), 4 hours, read-out: Inhibitory Ratio of NF-κ B Activation(%) Drug Concentration 1 μg/mL

| SMILES | Inhibitory Ratio of NF-κ B Activation(%) Drug Concentration 1 μg/mL [1] [%] | Inhibitory Ratio of NF-κ B Activation(%) Drug Concentration 10 μg/mL [2] [%] | further results |
| --- | --- | --- | --- |
| CC(=O)Oc1ccc(Cl)cc1C(=O)Nc1cc(C(F)(F)F)cc(C(F)(F)F)c1 [compound 5] | 96.5 | 99.2 | – |
| O=C(Nc1cc(Cl)cc(Cl)c1)c1cc(Br)ccc1O [Compound No. 126] | 77.1 | 92.8 | – |
| Cc1ccc(O)c(C(=O)Nc2cc(C(F)(F)F)ccc2C)c1 [Compound No. 102] | 89.3 | 98.3 | – |
| O=C(Nc1cc(C(F)(F)F)cc(C(F)(F)F)c1)c1cc(S(=O)(=O)Nc2cc(C(F)(F)F)cc(C(F)(F)F)c2)ccc1Cl [Compound No. 247] | – | >99.9 | – |
| COc1ccc(C)cc1NC(=O)c1cc(Cl)ccc1O [Compound No. 178] | – | 89.7 | – |
| CCCCOc1ccc(OCCCC)c(NC(=O)c2cc(Cl)ccc2O)c1 [Compound No. 161] | 94.2 | 97.6 | – |
| O=C(Nc1cc(C(F)(F)F)ccc1Oc1ccc(Cl)cc1)c1cc(Cl)ccc1O [Compound No. 118] | 95.0 | 99.5 | – |
| O=C(Nc1cc(F)cc(C(F)(F)F)c1)c1cc(Cl)ccc1O [Compound No. 85] | 94.7 | 98.9 | – |
| O=C(Nc1cc(C(F)(F)F)ccc1OCC(F)(F)F)c1cc(Cl)ccc1O [Compound No. 113] | 90.5 | 96.2 | – |
| CCOC(=O)c1c(NC(=O)c2cc(Cl)ccc2O)sc2c1CCCC2 [Compound No. 232] | 88.2 | 85.4 | – |
| O=C(Nc1cc(C(F)(F)F)cc(C(F)(F)F)c1)c1ccc(O)c(C(=O)Nc2cc(C(F)(F)F)cc(C(F)(F)F)c2)c1 [Compound No. 37] | – | 94.5 | – |
| CC(C)(C)c1nc(NC(=O)c2cc(Br)ccc2O)sc1C#N [Compound No. 189] | 20.0 | 93.8 | – |
| Cc1nc(NC(=O)c2cc(Br)ccc2O)sc1-c1ccc(F)cc1 [Compound No. 193, 5-Bromo-N-[4-methyl-5-(4-fluorophenyl)thiazol-2-yl]-2-hydroxybenzamide] | – | – | inhibition at 10 µg/mL [3]: 82% |
| O=C(Nc1cc(C(F)(F)F)cc(C(F)(F)F)c1)c1cc(-c2cccs2)ccc1O [Compound No. 28] | 79.5 | 97.8 | – |
| COC(=O)c1cc(NC(=O)c2cc(Br)ccc2O)cc(C(=O)OC)c1 [Compound No. 144, 5-bromo-2-hydroxy-N-[3,5-bis(methoxycarbonyl)phenyl]benzamide] | – | – | inhibition at 10 µg/mL [3]: 56.4% |
| O=C(Nc1cc(C(F)(F)F)cc(C(F)(F)F)c1)c1c(O)c(Cl)cc(Cl)c1Cl [Compound No. 61] | 95.1 | 97.2 | – |
| O=C(Nc1cc(C(F)(F)F)cc(C(F)(F)F)c1)c1scc(Br)c1O [Compound No. 74, 4-Bromo-3-hydroxy-N-[3,5-bis(trifluoromethyl)phenyl]thiophene-2-carboxamide] | – | – | inhibition at 1 µg/mL [4]: 64%; inhibition at 10 µg/mL [3]: 97.5% |

| SMILES | Inhibitory Ratio of NF-κ B Activation(%) Drug Concentration 1 μg/mL [1] [%] | Inhibitory Ratio of NF-κ B Activation(%) Drug Concentration 10 μg/mL [2] [%] | further results |
| --- | --- | --- | --- |
| O=C(Nc1cc(C(F)(F)F)cc(C(F)(F)F)c1)c1cc(-c2ccccn2)ccc1O [Compound No. 32, N-[3,5-Bis(trifluoromethyl)phenyl]-2-hydroxy-5-(pyridin-2-yl)benzamide] | – | – | inhibition at 1 µg/mL [4]: 90.4%; inhibition at 10 µg/mL [3]: 99% |
| O=C(Nc1ccc(O)c(C(=O)Nc2cc(C(F)(F)F)cc(C(F)(F)F)c2)c1)c1ccccc1 [Compound No. 45] | – | 63.4 | – |
| CC(C)(C)c1nc(NC(=O)c2cc(Br)ccc2O)sc1Br [Compound No. 186, 5-Bromo-N-{5-bromo-4-[(1,1-dimethyl)ethyl]thiazol-2-yl}-2-hydroxybenzamide] | – | – | inhibition at 1 µg/mL [4]: 96.5%; inhibition at 10 µg/mL [3]: 98.7% |
| O=C(Nc1cc(C(F)(F)F)cc(C(F)(F)F)c1)c1ccc(-c2ccccc2)cc1O [Compound No. 262, N-[3,5-Bis(trifluoromethyl)phenyl]-2-hydroxy-4-phenylbenzamide] | – | – | inhibition at 1 µg/mL [4]: > 99.9% |
| COc1ccc(-c2csc(NC(=O)c3cc(Cl)ccc3O)n2)cc1 [Compound No. 264, 5-Chloro-2-hydroxy-N-[4-(4-methoxyphenyl)thiazol-2-yl]benzamide] | – | – | inhibition at 1 µg/mL [4]: > 99.9% |
| O=C(Nc1nc(-c2ccc(Cl)c(Cl)c2)cs1)c1cc(Cl)ccc1O [Compound No. 260, 5-Chloro-2-hydroxy-N-[4-(3,4-dichlorophenyl)thiazol-2-yl]benzamide] | – | – | inhibition at 1 µg/mL [4]: > 99.9% |
| CC(C)(C)c1cc(C(=O)Nc2cc(C(F)(F)F)cc(C(F)(F)F)c2)c(O)c(C(C)(C)C)c1 [Compound No. 62] | 37.0 | 86.9 | – |
| CCOC(=O)c1sc(NC(=O)c2cc(Br)ccc2O)nc1-c1c(F)c(F)c(F)c(F)c1F [Compound No. 219, Ethyl 2-(5-bromo-2-hydroxybenzoyl)amino-4-(pentafluorophenyl)thiazole-5-carboxylate] | – | – | inhibition at 1 µg/mL [4]: 82.2%; inhibition at 10 µg/mL [3]: 96% |
| O=C(Nc1cc(C(F)(F)F)cc(C(F)(F)F)c1)c1cccc(O)c1O [Compound No. 57] | – | 91.9 | – |
| O=C(Nc1cc(C(F)(F)F)ccc1Cl)c1cc([N+](=O)[O-])ccc1O [Compound No. 99] | 54.3 | 98.0 | – |
| O=C(Nc1cc(C(F)(F)F)cc(C(F)(F)F)c1)c1ccccc1O [compound 2] | 93.3 | 95.6 | – |
| CCOC(=O)c1sc(NC(=O)c2cc(Cl)ccc2O)nc1-c1ccccc1 [Compound No. 218] | 80.7 | 94.2 | – |
| O=C(Nc1cc(C(F)(F)F)cc(C(F)(F)F)c1)c1c(O)cccc1O [Compound No. 52] | 96.4 | 97.3 | – |
| CCOC(=O)c1sc(NC(=O)c2cc(-c3cccs3)ccc2O)nc1-c1ccccc1 [Compound No. 230, 2-[2-Hydroxy-5-(2-thienyl)benzoyl]amino-4-phenylthiazole-5-carboxylic acid ethyl ester] | – | – | inhibition at 1 µg/mL [4]: 40.8%; inhibition at 10 µg/mL [3]: 84.8% |
| O=C(Nc1ccc(Cl)c(Cl)c1)c1cc(Br)ccc1O [drawing 558, reference compound] | – | – | inhibition at 0.1 µg/mL (Homo sapiens, HepG2, 4 h, 0.1 μg/ml, comparison table, reporter assay, read-out: Inhibitory Ratio of NF-κB Activation (%) 0.1 μg/ml): 6.8%; inhibition at 1 µg/mL (Homo sapiens, HepG2, 4 h, 1 μg/ml, comparison table, reporter assay, read-out: Inhibitory Ratio of NF-κB Activation (%) 1 μg/ml): 88.7%; inhibition at 10 µg/mL (Homo sapiens, HepG2, 4 h, 10 μg/ml, comparison table, reporter assay, read-out: Inhibitory Ratio of NF-κB Activation (%) 10 μg/ml): 92.7% |
| O=C(Nc1cc(C(F)(F)F)ccc1Cl)c1cc(Cl)cnc1O [Compound No. 119] | 85.4 | 86.9 | – |
| O=C(Nc1cc(Cl)cc(Cl)c1)c1cc2ccccc2cc1O [Compound No. 181] | – | 95.1 | – |
